Experimental findings from US20240342242A1, “COMPOSITIONS AND METHODS FOR TREATING MASTITIS” (Zoetis Services LLC, priority 2021, published 2024) are described below.

The subject of experiment [1] is bovine peripheral blood mononuclear cells (PBMCs). The experiment can be described thus: Cytokine production in bovine PBMCs after TLR 4 agonist stimulation. The experiment is classed as cell-based. Particulars: LPS or MPLA stimulation. The text has this:
Chicken CATH2 is a host defense peptide that is naturally expressed in chicken heterophils and several tissues. […] LPS and MPLA serve as potent Toll-like Receptor 4 (TLR 4) agonists in this assay and induce high levels of proinflammatory cytokines such as interleukin 6 (IL-6) and tumor necrosis factor alpha (TNFα).

The test system of a further experiment is S. aureus. The experiment is described as follows: S. aureus challenge study, treatment at onset of clinical mastitis, Example 3. The experiment is classed as in vivo, Holstein or Holstein Crossbred cattle. To be noted: 6 doses at 50 mg/10 mL intramammary. On the procedure: Bovine mastitis specific bacterial pathogens were used to experimentally infect periparturient cows and first lactation heifer Holstein or Holstein Crossbred cattle to test the efficacy of the CATH2 peptide in the treatment and prevention of clinical mastitis.
A frozen stock of S. aureus was used to prepare a suspension of approximately 600 colony forming units in 5 mL. Standard plate counts were conducted on the challenge suspension immediately after preparation and after all animals were challenged. Details of each challenge inoculum preparation including concentration (CFU/5 mL) for pre- and post-challenge preparation were documented and confirmed to be in range.
Quarters that were bacteriologically positive for S. aureus were regarded as infected. Clinical mastitis was defined as a challenged quarter having a clinical score of at least 1 for either milk appearance or udder evaluation with an isolation of S. aureus (≥100 cfu/mL) from the quarter within 2 days of clinical signs. Sub-clinical chronic mastitis was defined as isolation of S. aureus (≥100 cfu/mL) from a challenged quarter and elevated SCC (>200,000 cells/mL) in the absence of abnormal milk or udder score.
All treatments were administered in accordance with the randomization provided by the biometrician into the challenged quarter (left front) of the udder. Treatments were administered upon onset of clinical mastitis. In this model, onset is approximately 1 to 3 days post-challenge. Upon confirmation of clinical mastitis, treatments were administered at the next milking. Treatments were administered with a 10 mL syringe via intramammary infusion and recorded.
Each animal with clinical mastitis received a total of 6 doses at 50 mg/10 mL by intramammary infusion administered twice daily for 3 consecutive days.

In the next experiment the test system is E. coli challenge strain. The experiment can be described thus: Antibacterial activity of 2 mg peptide in varying milk concentrations, 2-minute pre-incubation. The experiment is classed as cell-based. On the procedure: In a follow up assay to better understand the impact of milk protein binding on antibacterial activity that may be seen in vivo, a ratio of peptide to milk protein was estimated. In this assay varying concentrations of milk in bacterial growth medium was incubated with 2 mg of peptide. Two minutes after adding peptide to the tube, 500 colony forming units (CFU)/mL of the E. coli challenge strain was added. The timing was purposeful for understanding how quickly the peptide can be completely bound. The low inoculum was also chosen intentionally to more closely replicate the dose provided in the in vivo challenge model, thereby providing a worst-case scenario on exposure to free peptide. […] The quantity of milk protein was enough to bind 2 mg of CATH2 peptide. The bacterial growth was evaluated at 1, 2, 4, 6, and 24 hours post inoculation. […] The lower level of detection was 10 CFU/mL and the upper level of quantification measured for the purposes of this assay was set to 1.5×10^5 CFU/mL.

Another experiment concerns Streptococcus uberis. The experiment is described as follows: S. uberis challenge study, Example 4. The experiment is classed as in vivo, cattle.
A short description of experiment [2]: Dry off therapy: transcriptomics of udder secretions in healthy dry cows, Example 5. The experiment is classed as in vivo, Holstein cattle. To be noted: 400 mg/10 mL, 1-day post administration. As for the experimental part: In an additional study, pregnant multiparous Holstein cattle were treated with a single dose of CATH2 at approximately 60 days prior to expected calving dates for this group of animals by intramammary infusion following milking. These animals were considered to be entering the so-called dry period in which animals are no longer milked until post-partition. The objective of this study was to understand the immunomodulatory activity of varying doses of CATH2 administered by intramammary infusion in healthy multiparous cows at dry off.
Udder secretion samples were collected 1, 2, and 7 days post administration. Samples were also collected from the neighboring Right Rear quarter as an untreated in animal control of varying immunological responses. The samples were processed for transcriptomics analysis to determine the healthy animal response to treatment alone.

Consider “RFGRFLRKIRRFRPKVTITIQ [CATH2, truncated 1-21 amino acid L-form of chicken cathelicidin 2 peptide]”, for which the “proinflammatory cytokines (IL-6, TNFα) in PBMCs” value in experiment [1] was “effectively inhibits these proinflammatory cytokines”. In the experiment on S. aureus, the “animals showing a positive response to treatment” value came out at 55.6%; the severity of disease entry is “reduction in bacterial counts and reduced somatic cell counts”. For the same sequence, the “animals achieving clinical cure” value in the experiment on S. aureus (twice daily for 3 days) worked out at 33.3%. In addition, the “antibacterial activity in 10% and 20% milk” value in the experiment with E. coli challenge strain is “some inhibition of bacterial growth”. The “antibacterial activity in 30% whole milk” value in the experiment with E. coli challenge strain (2-minute incubation, 500 CFU/mL E. coli) is recorded as “completely block the antibacterial activity”. Further, the “antibacterial activity in bacterial medium alone” value in the experiment on E. coli challenge strain (E. coli below level of detection (10 CFU/mL) at 1, 2, 4, 6, 24 h) was “completely bactericidal”. Moreover, the “animals meeting criteria for removal from study (Kaplan Meier analysis)” value with Streptococcus uberis (50 mg/10 mL, 2 doses prior to challenge or 4 doses spanning challenge, FIG. 21) was “reduction in the number of animals meeting criteria for removal of study”. The “incidence of clinical mastitis” value with Streptococcus uberis (50 mg/10 mL, both regimens, FIG. 22) is listed as “reduced incidence of clinical mastitis”. Further, in the experiment on Streptococcus uberis (4 doses at -12, 0, 12, 24 hours), the “progression of clinical mastitis, 4 dose regimen vs 2 dose regimen” value is given as “greater capacity to inhibit the progression of clinical mastitis”. Also, in experiment [2], the “gene expression in udder secretions” value was “increased expression of: CCL24, CXCL2, IL1RAP, CXCR1, and CXCR2”.
